Source: PubChem BioAssay AID743068 (The Scripps Research Institute Molecular Screening Center, 2013)

Test system: T. brucei
Assay: T. brucei bloodstream-form proliferation inhibition – absorbance, round 1, T. brucei MetRS inhibitor project, late-stage follow-up (AID 743068)
Details: T. brucei Lister 427 bloodstream forms, AlamarBlue fluorescence, 48 h

Row | SMILES | IC50
1 | O=C(NCCc1nc2ccccc2[nH]1)c1ccc(Cl)c(Cl)c1 | > 10 µM
2 | Cc1ccc(C(=O)NCCc2nc3ccccc3[nH]2)cc1C | > 10 µM
3 | Cc1cccc2[nH]c(CCN(C)C(=O)c3cccc(C4CCNC4)c3)nc12 (stereo not given) | > 10 µM
4 | CCc1ccc2c(c1)c1nnc(SCC(=O)Nc3ccc4c(c3)OCO4)nc1n2C | > 10 µM
5 | CCc1ccc2[nH]c3nc(SCC(=O)NCc4cccc(OC)c4)nnc3c2c1 | > 10 µM
6 | CCCCn1c(CCNC(=O)c2ccc(F)cc2)nc2ccccc21 | > 10 µM
7 | Cc1cc2cc(C(=O)N3CCCC(c4nc5ccccc5[nH]4)C3)ccc2o1 (stereo not given) | > 10 µM
8 | CC(C)c1nc2ccc(C(=O)N(C)CCc3nc4ccc(F)cc4[nH]3)cc2o1 | > 10 µM
9 | CC1Cc2ccccc2N1C(=O)Cn1cc(C(=O)C(=O)N2CCOCC2)c2ccccc21 (stereo not given) | > 10 µM
10 | CCN(CC)C(=O)C(=O)c1cn(CC(=O)Nc2cccc(OC)c2)c2ccccc12 | > 10 µM
11 | Cc1ccc(C(=O)NCCc2nc3ccccc3[nH]2)cc1[N+](=O)[O-] | > 10 µM
12 | Cn1c(CCNC(=O)c2ccc(Cl)cc2)nc2ccccc21 | > 10 µM
13 | O=C(Cn1cc(C(=O)C(=O)N2CCOCC2)c2ccccc21)NCC1CCCO1 (stereo not given) | > 10 µM
14 | CCN(CCc1nc2ccc(C)cc2[nH]1)C(=O)c1ccc2ncccc2c1 | > 10 µM
15 | O=C(C(=O)N1CCOCC1)c1cn(CC(=O)N2CCCc3ccccc32)c2ccccc12 | > 10 µM
16 | COc1cccc(NC(=O)C2CC(=O)n3c(nc4ccccc43)N2)c1 (stereo not given) | > 10 µM
17 | COc1ccc(NC(=O)C2CC(=O)n3c(nc4ccccc43)N2)cc1 (stereo not given) | > 10 µM
18 | O=C(Cn1cc(C(=O)C2CC2)c2ccccc21)Nc1cccc(C(F)(F)F)c1 | 2.62 µM
19 | CCN(C(=O)Cn1cc(C(=O)C(=O)N2CCOCC2)c2ccccc21)c1ccccc1 | > 10 µM
20 | O=C(NCCc1nc2ccccc2[nH]1)c1c(F)cccc1F | > 10 µM
21 | COc1ccc(CCN(C(=S)Nc2ccccc2)C2CC(=O)N(c3ccc(Cl)cc3)C2=O)cc1 (stereo not given) | 2.1 µM
22 | COc1ccccc1NC(=O)CSc1nnc2c(n1)[nH]c1ccc(C)cc12 | > 10 µM
23 | COCCc1nc2ccc(C(=O)NCCc3nc4ccc(OC)cc4[nH]3)cc2o1 | > 10 µM
24 | CC(=O)N(CCc1ccccc1)C1CC(=O)N(c2ccc(Cl)cc2)C1=O (stereo not given) | > 10 µM
25 | CCC(=O)c1cn(CC(=O)Nc2cccc(C(F)(F)F)c2)c2ccccc12 | > 10 µM
26 | O=C(Cn1cc(C(=O)c2ccco2)c2ccccc21)Nc1cccc(C(F)(F)F)c1 | 8.18 µM
27 | O=C(NCc1nc2ccccc2[nH]1)C1=C[C@@H](C2CC2)C[C@@H](OCc2ccc(CO)cc2)O1 | > 10 µM
28 | O=C(NCCc1nc2ccccc2[nH]1)c1ccc(Cl)cc1Cl | > 10 µM

Row | SMILES | IC50
29 | O=C(NCc1nc2ccccc2[nH]1)C1=C[C@H](c2ccccc2)C[C@H](OCc2ccc(CO)cc2)O1 | > 10 µM
30 | O=C(Cn1cc(C(=O)C(=O)N2CCOCC2)c2ccccc21)NCc1ccccc1 | > 10 µM
31 | Cc1ccc(CNC(=O)CSc2nnc3c(n2)[nH]c2ccc(C)cc23)cc1 | > 10 µM
32 | O=C(Cn1cc(C(=O)C(=O)N2CCCC2)c2ccccc21)Nc1ccccc1 | > 10 µM
33 | Cc1cccc(NC(=O)C2CC(=O)n3c(nc4ccccc43)N2)c1 (stereo not given) | > 10 µM
34 | O=C1CC(NCCc2ccccc2)C(=O)N1c1ccc(Br)cc1 (stereo not given) | > 10 µM
35 | COc1ccc(NC(=O)CSc2nnc3c4cc(C)ccc4n(C)c3n2)cc1 | > 10 µM
36 | CCN(CC)C(=O)C(=O)c1cn(CC(=O)N(CC)c2ccccc2)c2ccccc12 | > 10 µM
37 | CCN(CC)C(=O)C(=O)c1cn(CC(=O)N2CCCc3ccccc32)c2ccccc12 | > 10 µM
38 | CNC(=S)N(CCc1ccccc1)C1CC(=O)N(c2ccc(Br)cc2)C1=O (stereo not given) | 3.44 µM
39 | COc1ccc(CCN(C(=O)c2cccc(F)c2)C2CC(=O)N(c3ccc(Br)cc3)C2=O)cc1 (stereo not given) | > 10 µM
40 | COc1ccccc1NC(=O)Cn1cc(C(=O)C(=O)N2CCOCC2)c2ccccc21 | > 10 µM
41 | CCN(CC)C(=O)C(=O)c1cn(CC(=O)Nc2ccccc2OC)c2ccccc12 | > 10 µM
42 | Cc1cccc(C(=O)NCCc2nc3ccccc3n2CCOc2ccccc2)c1 | > 10 µM
43 | O=C(CSC1CC(=O)N(c2cccc(Cl)c2)C1=O)Nc1ccc(Br)cc1 (stereo not given) | > 10 µM
44 | Cc1ccc2[nH]c3nc(SCC(=O)Nc4ccc(C(F)(F)F)cc4)nnc3c2c1 | > 10 µM
45 | CC(=O)N(CCc1ccccc1)C1CC(=O)N(c2ccc(Br)cc2)C1=O (stereo not given) | > 10 µM
46 | O=C(NCCc1nc2ccccc2[nH]1)c1ccc(Cl)cc1 | > 10 µM
47 | CC(=O)c1cn(CC(=O)Nc2cccc(C(F)(F)F)c2)c2ccccc12 | > 10 µM
48 | CCN(CC)C(=O)C(=O)c1cn(CC(=O)Nc2cccc(C(F)(F)F)c2)c2ccccc12 | 2.55 µM
49 | Cc1cccc2[nH]c(C3CCCN(C(=O)c4cccc5cccnc45)C3)nc12 (stereo not given) | > 10 µM
50 | O=C(NCc1nc2ccccc2[nH]1)C1=C[C@H](c2ccc3c(c2)OCO3)C[C@H](OCCCCO)O1 | > 10 µM
51 | O=C(CSc1nnc2c(n1)[nH]c1ccc(Br)cc12)NCc1ccccc1 | > 10 µM
52 | O=C(Cn1cc(C(=O)COc2ccccc2)c2ccccc21)Nc1cccc(C(F)(F)F)c1 | > 10 µM
53 | CC(C)(C)[C@H]1C=C(C(=O)NCc2nc3ccccc3[nH]2)O[C@@H](OCc2ccc(CO)cc2)C1 | > 10 µM
54 | O=C(Cn1cc(C(=O)c2ccccc2)c2ccccc21)Nc1cccc(C(F)(F)F)c1 | 4.2 µM
55 | CCO[C@H]1OC(C(=O)NCc2nc3ccccc3[nH]2)=C[C@@H](c2ccc(Br)cc2)[C@@H]1CCCO | > 10 µM
